Data: ChEMBL document CHEMBL4421722, “Inhibitors of protein prenyltransferases” (2013)

species on record: Rattus norvegicus; assay: Inhibition of rat recombinant geranylgeranyltransferase type I expressed in Escherichia coli assessed as residual enzyme activity for geranylgeranylation of K-Ras4B at 50 uM incubated for 30 mins in presence of [3H]GGPP by scintillation counting assay relative to control

Compound	Activity [%]
Cc1ccc(S(=O)(=O)N2C[C@@H](C(=O)O)[C@H](SCC(C)C)C[C@H]2c2ccccc2)cc1	26 to 85.1
Cc1ccc(S(=O)(=O)N2[C@@H](c3cccc(F)c3)C(C(=O)O)=CC[C@H]2c2cccc(Br)c2)cc1	17 to 85.6
C=CCS[C@H]1[C@@H](C(=O)O)[C@H](c2ccc(Cl)c(Cl)c2)N(S(=O)(=O)c2ccc(C)cc2)[C@@H]1CCCC	21.4
C=CCS[C@H]1[C@@H](C(=O)O)[C@H](c2ccc(Cl)cc2)N(S(=O)(=O)c2ccccc2C)[C@@H]1CC1CCCC1	22.4
Cc1ccc(S(=O)(=O)N2C[C@@H](C(=O)O)[C@H](Sc3ccc(Cl)cc3)C[C@H]2c2cccc(Cl)c2)cc1	111
Cc1ccc(S(=O)(=O)N2C[C@@H](C(=O)O)[C@H](SCc3ccc(Cl)cc3)C[C@H]2c2ccccc2)cc1	23.7 to 24.8
CC[C@@H]1[C@@H](SCCC(=O)OC(C)(C)C)[C@@H](C(=O)O)[C@H](c2ccc(Cl)c(Cl)c2)N1S(=O)(=O)c1ccc(C)cc1	27.2
Cc1ccc(S(=O)(=O)N2[C@@H](c3cccc(Br)c3)C(C(=O)O)=CC[C@H]2c2cccc(Cl)c2)cc1	11 to 23.1
Cc1ccc(S(=O)(=O)N2C[C@@H](C(=O)O)[C@H](SCC(C)C)C[C@H]2c2cccc(Br)c2)cc1	11.4 to 18.8
C=CCS[C@H]1[C@@H](C(=O)O)[C@H](c2ccc(OC)c(OC)c2)N(S(=O)(=O)c2ccc(C)cc2)[C@@H]1CCCCCC	22.3
Cc1ccc(S(=O)(=O)N2C[C@@H](C(=O)O)[C@H](SCCc3ccccc3)C[C@H]2c2cccc(Br)c2)cc1	4.7 to 7.3
Cc1ccc(S(=O)(=O)N2[C@@H](c3cccc(C)c3)C(C(=O)O)=CC[C@H]2c2cccc(Br)c2)cc1	16.1 to 31.9
Cc1ccccc1S(=O)(=O)N1C[C@@H](C(=O)O)[C@H](SCc2ccc(Cl)cc2)C[C@H]1c1ccc(Cl)cc1	21.3 to 24.5
COc1ccc(S[C@H]2[C@@H](C(=O)O)[C@H](c3ccc(Cl)cc3)N(S(=O)(=O)c3ccc(Cl)cc3)[C@@H]2C(C)C)cc1	48.7
CCCCCS[C@@H]1C[C@@H](c2cccc(Br)c2)N(S(=O)(=O)c2ccc(C)cc2)C[C@H]1C(=O)O	28.5 to 85.1
Cc1ccc(S(=O)(=O)N2C[C@@H](C(=O)O)[C@H](SCCc3ccccc3)C[C@H]2c2ccc(Cl)cc2)cc1	15.1 to 20.8
COc1ccc([C@@H]2C[C@@H](SCc3ccc(Cl)cc3)[C@H](C(=O)O)CN2S(=O)(=O)c2ccccc2C)cc1	23.9 to 30.9
C=CCS[C@H]1[C@@H](C(=O)O)[C@H](c2ccc(C(C)C)cc2)N(S(=O)(=O)c2ccc(C)cc2)[C@@H]1CC1CCCC1	31.7
Cc1ccc([C@@H]2C[C@@H](SCc3ccccc3)[C@H](C(=O)O)CN2S(=O)(=O)c2ccccc2C)cc1	32 to 35.6
Cc1ccc(S(=O)(=O)N2[C@@H](c3cccc(Br)c3)C(C(=O)O)=CC[C@H]2c2cccc(Br)c2)cc1	9.4 to 15.2
Cc1ccc([C@@H]2C[C@@H](SCCc3ccccc3)[C@H](C(=O)O)CN2S(=O)(=O)c2ccc(C)cc2)cc1	22.6 to 35.4
C=CCS[C@@H]1C[C@@H](c2ccc(Cl)cc2)N(S(=O)(=O)c2ccccc2C)C[C@H]1C(=O)O	16.4 to 17.8
CCCC[C@@H]1[C@@H](Sc2ccc(C)cc2)[C@@H](C(=O)O)[C@H](c2cccc(F)c2)N1S(=O)(=O)c1ccc(C)cc1	31.5
Cc1ccc([C@@H]2CC=C(C(=O)O)[C@H](c3cccc(Br)c3)N2S(=O)(=O)c2ccc(Cl)cc2)cc1	8.4 to 19.9
COc1ccc([C@@H]2C[C@@H](SCc3ccc(Cl)cc3)[C@H](C(=O)O)CN2S(=O)(=O)c2ccccc2)cc1	29.2 to 31.9
Cc1ccc([C@@H]2C[C@@H](Sc3ccc(Cl)cc3)[C@H](C(=O)O)CN2S(=O)(=O)c2ccccc2C)cc1	4 to 6
Cc1ccc([C@@H]2C[C@@H](SCc3ccc(Cl)cc3)[C@H](C(=O)O)CN2S(=O)(=O)c2ccccc2C)cc1	19.6 to 20.4
C=CCS[C@H]1[C@@H](C(=O)O)[C@H](c2ccc(C#N)cc2)N(S(=O)(=O)c2ccc(C)cc2)[C@@H]1C(C)C	23.1
CC(C)CCS[C@H]1[C@@H](C(=O)O)[C@H](c2ccc(Cl)cc2)N(S(=O)(=O)c2ccccc2)[C@@H]1C(C)C	28.1
COc1ccc([C@@H]2C[C@@H](Sc3ccc(Cl)cc3)[C@H](C(=O)O)CN2S(=O)(=O)c2ccccc2C)cc1	72.2

species on record: Rattus norvegicus; assay: Inhibition of rat recombinant geranylgeranyltransferase type I expressed in Escherichia coli assessed as residual enzyme activity for geranylgeranylation of RhoA at 50 uM incubated for 30 mins in presence of [3H]GGPP by scintillation counting assay relative to control

Compound	Activity [%]
Cc1ccc(S(=O)(=O)N2C[C@@H](C(=O)O)[C@H](SCC(C)C)C[C@H]2c2ccccc2)cc1	10.7
Cc1ccc(S(=O)(=O)N2[C@@H](c3cccc(F)c3)C(C(=O)O)=CC[C@H]2c2cccc(Br)c2)cc1	15
C=CCS[C@H]1[C@@H](C(=O)O)[C@H](c2ccc(Cl)c(Cl)c2)N(S(=O)(=O)c2ccc(C)cc2)[C@@H]1CCCC	9.6
C=CCS[C@H]1[C@@H](C(=O)O)[C@H](c2ccc(Cl)cc2)N(S(=O)(=O)c2ccccc2C)[C@@H]1CC1CCCC1	4.9
Cc1ccc(S(=O)(=O)N2C[C@@H](C(=O)O)[C@H](Sc3ccc(Cl)cc3)C[C@H]2c2cccc(Cl)c2)cc1	6
Cc1ccc(S(=O)(=O)N2C[C@@H](C(=O)O)[C@H](SCc3ccc(Cl)cc3)C[C@H]2c2ccccc2)cc1	14.2
CC[C@@H]1[C@@H](SCCC(=O)OC(C)(C)C)[C@@H](C(=O)O)[C@H](c2ccc(Cl)c(Cl)c2)N1S(=O)(=O)c1ccc(C)cc1	7.6
Cc1ccc(S(=O)(=O)N2[C@@H](c3cccc(Br)c3)C(C(=O)O)=CC[C@H]2c2cccc(Cl)c2)cc1	7
Cc1ccc(S(=O)(=O)N2C[C@@H](C(=O)O)[C@H](SCC(C)C)C[C@H]2c2cccc(Br)c2)cc1	1.3
C=CCS[C@H]1[C@@H](C(=O)O)[C@H](c2ccc(OC)c(OC)c2)N(S(=O)(=O)c2ccc(C)cc2)[C@@H]1CCCCCC	8.1
Cc1ccc(S(=O)(=O)N2C[C@@H](C(=O)O)[C@H](SCCc3ccccc3)C[C@H]2c2cccc(Br)c2)cc1	3.1
Cc1ccc(S(=O)(=O)N2[C@@H](c3cccc(C)c3)C(C(=O)O)=CC[C@H]2c2cccc(Br)c2)cc1	14.3
Cc1ccccc1S(=O)(=O)N1C[C@@H](C(=O)O)[C@H](SCc2ccc(Cl)cc2)C[C@H]1c1ccc(Cl)cc1	13
COc1ccc(S[C@H]2[C@@H](C(=O)O)[C@H](c3ccc(Cl)cc3)N(S(=O)(=O)c3ccc(Cl)cc3)[C@@H]2C(C)C)cc1	8
CCCCCS[C@@H]1C[C@@H](c2cccc(Br)c2)N(S(=O)(=O)c2ccc(C)cc2)C[C@H]1C(=O)O	10.8
Cc1ccc(S(=O)(=O)N2C[C@@H](C(=O)O)[C@H](SCCc3ccccc3)C[C@H]2c2ccc(Cl)cc2)cc1	5.9
COc1ccc([C@@H]2C[C@@H](SCc3ccc(Cl)cc3)[C@H](C(=O)O)CN2S(=O)(=O)c2ccccc2C)cc1	0.5
C=CCS[C@H]1[C@@H](C(=O)O)[C@H](c2ccc(C(C)C)cc2)N(S(=O)(=O)c2ccc(C)cc2)[C@@H]1CC1CCCC1	6.1
Cc1ccc([C@@H]2C[C@@H](SCc3ccccc3)[C@H](C(=O)O)CN2S(=O)(=O)c2ccccc2C)cc1	17.5
Cc1ccc(S(=O)(=O)N2[C@@H](c3cccc(Br)c3)C(C(=O)O)=CC[C@H]2c2cccc(Br)c2)cc1	3.7
Cc1ccc([C@@H]2C[C@@H](SCCc3ccccc3)[C@H](C(=O)O)CN2S(=O)(=O)c2ccc(C)cc2)cc1	12.4
C=CCS[C@@H]1C[C@@H](c2ccc(Cl)cc2)N(S(=O)(=O)c2ccccc2C)C[C@H]1C(=O)O	9.4
CCCC[C@@H]1[C@@H](Sc2ccc(C)cc2)[C@@H](C(=O)O)[C@H](c2cccc(F)c2)N1S(=O)(=O)c1ccc(C)cc1	7.1
Cc1ccc([C@@H]2CC=C(C(=O)O)[C@H](c3cccc(Br)c3)N2S(=O)(=O)c2ccc(Cl)cc2)cc1	7.4
COc1ccc([C@@H]2C[C@@H](SCc3ccc(Cl)cc3)[C@H](C(=O)O)CN2S(=O)(=O)c2ccccc2)cc1	13.4
Cc1ccc([C@@H]2C[C@@H](Sc3ccc(Cl)cc3)[C@H](C(=O)O)CN2S(=O)(=O)c2ccccc2C)cc1	-4.7 to 10.5
Cc1ccc([C@@H]2C[C@@H](SCc3ccc(Cl)cc3)[C@H](C(=O)O)CN2S(=O)(=O)c2ccccc2C)cc1	10.5
C=CCS[C@H]1[C@@H](C(=O)O)[C@H](c2ccc(C#N)cc2)N(S(=O)(=O)c2ccc(C)cc2)[C@@H]1C(C)C	9.3
CC(C)CCS[C@H]1[C@@H](C(=O)O)[C@H](c2ccc(Cl)cc2)N(S(=O)(=O)c2ccccc2)[C@@H]1C(C)C	5.9
COc1ccc([C@@H]2C[C@@H](Sc3ccc(Cl)cc3)[C@H](C(=O)O)CN2S(=O)(=O)c2ccccc2C)cc1	17.7
